# Measurements taken from patent US7169931B2, “Cyclic compounds exhibiting thrombopoietin receptor agonism” (Shionogi & Co., Ltd., priority 2001, dated 2007).
# Biological target: T1, human TPO receptor (Homo sapiens, UniProt P40238)
# T1 construct: expressed in transfected cells; host or cells: BaF-B03 (murine IL-3 dependent cell line)
# T1 sequence (P40238 26-635): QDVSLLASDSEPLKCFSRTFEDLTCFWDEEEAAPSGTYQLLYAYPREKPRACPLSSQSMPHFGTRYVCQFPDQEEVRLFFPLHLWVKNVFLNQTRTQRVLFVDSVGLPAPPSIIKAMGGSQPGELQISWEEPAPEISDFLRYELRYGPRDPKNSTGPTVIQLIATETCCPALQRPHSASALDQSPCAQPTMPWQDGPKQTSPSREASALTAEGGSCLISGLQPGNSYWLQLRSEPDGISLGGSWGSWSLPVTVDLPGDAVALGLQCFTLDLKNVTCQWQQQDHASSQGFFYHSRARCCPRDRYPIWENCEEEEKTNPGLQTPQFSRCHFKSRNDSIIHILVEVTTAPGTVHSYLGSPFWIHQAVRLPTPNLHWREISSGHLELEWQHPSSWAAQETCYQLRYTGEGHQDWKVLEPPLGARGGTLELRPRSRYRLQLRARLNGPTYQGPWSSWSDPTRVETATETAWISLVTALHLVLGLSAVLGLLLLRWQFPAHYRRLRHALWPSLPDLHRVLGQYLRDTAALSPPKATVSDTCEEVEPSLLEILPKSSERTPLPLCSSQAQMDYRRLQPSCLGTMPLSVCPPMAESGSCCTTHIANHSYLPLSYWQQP
# Assay: Thrombopoietic activity: proliferation of TPO dependent BaF/hTPOR cells (WST-1)
# Assay type: cell-based
# Conditions: BaF/hTPOR cell line (BaF-B03 with human TPO receptor), without IL-3; 20 hours incubation + 4 hours WST-1, absorbance 450 nm; ED50 = half concentration of the concentration showing maximum thrombopoietic activity
# Protocol: BAF/hTPOR cells were maintained in RPMI medium and WEHI-3B conditioned medium as a source of murine interleukin-3 (IL-3). These cells were washed and resuspended in RPMI medium without a source of murine IL-3 and seeded into each well of 96-well microtiter plates at a density of 5×10^4 cells per well in the absence or presence of various concentration of hTPO or the present compound. After incubation at 37° C. for 20 hours in the 5% CO2 incubator, 10% WST-1 reagent (Takara Biomedicals, Japan) was added to each wells and the cells were further incubated for 4 hours. The absorbance at 450 nm was measured.
row,SMILES,EC50 [nM]
1,O=C(Nc1nc(-c2ccc(Cl)c(Cl)c2)cs1)c1ccc2c(c1)CCC(C(=O)O)C2 (centres unmarked) [Compound A-1],40
2,O=C(O)c1ccc2c(c1)CCC(C(=O)Nc1nc(-c3ccc(Cl)c(Cl)c3)cs1)C2 (centres unmarked) [Compound A-2],376
3,O=C(Nc1nc(-c2ccc(Cl)c(Cl)c2)cs1)c1ccc2c(c1)CC(C(=O)O)CC2 (centres unmarked) [Compound A-3],965
4,O=C(Nc1nc(-c2ccc(Cl)c(Cl)c2)cs1)c1ccc2c(c1)CCC(F)(C(=O)O)C2 (centres unmarked) [Compound A-4],148
5,COC(=O)C1(F)CCc2cc(C(=O)Nc3nc(-c4ccc(Cl)c(Cl)c4)cs3)ccc2C1 (centres unmarked) [Compound A-5],165
6,O=C(Nc1nc(-c2ccc(Cl)c(Cl)c2)cs1)c1ccc2c(c1)C(=O)CC(C(=O)O)C2 (centres unmarked) [Compound A-6],210
7,COC(=O)C1CC(=O)c2cc(C(=O)Nc3nc(-c4ccc(Cl)c(Cl)c4)cs3)ccc2C1 (centres unmarked) [Compound A-7],250
8,COC(=O)[C@@H]1Cc2ccc(C(=O)Nc3nc(-c4ccc(Cl)c(Cl)c4)cs3)cc2[C@H](O)C1 [Compound A-8],2280
9,O=C(Nc1nc(-c2ccc(Cl)c(Cl)c2)cs1)c1ccc2c(c1)C(F)CC(C(=O)O)C2 (centres unmarked) [Compound A-9],306
10,COC(=O)C1Cc2ccc(C(=O)Nc3nc(-c4ccc(Cl)c(Cl)c4)cs3)cc2C(=O)C1F (centres unmarked) [Compound A-11],552
11,COC(=O)CC1Cc2ccc(C(=O)Nc3nc(-c4ccc(Cl)c(Cl)c4)cs3)cc2C1=O (centres unmarked) [Compound A-13],270
12,O=C(O)CC1Cc2ccc(C(=O)Nc3nc(-c4ccc(Cl)c(Cl)c4)cs3)cc2C1=O (centres unmarked) [Compound A-14],230
13,COC(=O)CC1Cc2ccc(C(=O)Nc3nc(-c4ccc(Cl)c(Cl)c4)cs3)cc2C1 (centres unmarked) [Compound A-15],240
14,O=C(O)CC1Cc2ccc(C(=O)Nc3nc(-c4ccc(Cl)c(Cl)c4)cs3)cc2C1 (centres unmarked) [Compound A-16],230
15,O=C(O)c1ccc2cc(C(=O)Nc3nc(-c4ccc(Cl)c(Cl)c4)cs3)ccc2c1 [Compound A-17],23
16,COC(=O)c1ccc2cc(C(=O)Nc3nc(-c4ccc(Cl)c(Cl)c4)cs3)ccc2c1 [Compound A-18],43
17,COC(=O)c1ccc2cc(C(=O)Nc3nc(-c4ccc(Cl)c(Cl)c4)cs3)ccc2n1 [Compound A-22],190
18,O=C(Nc1nc(-c2cccc(C(F)(F)F)c2F)cs1)c1ccc2c(c1)CCC(C(=O)O)C2 (centres unmarked) [Compound B-1],69
19,O=C(Nc1nc(-c2ccc3c(c2)CCCC3)cs1)c1ccc2c(c1)CCC(C(=O)O)C2 (centres unmarked) [Compound B-2],214
20,CCCCc1cccc(-c2csc(NC(=O)c3ccc4c(c3)CCC(C(=O)O)C4)n2)c1 (centres unmarked) [Compound B-3],219
21,O=C(Nc1nc(-c2ccc(C(F)(F)F)cc2F)cs1)c1ccc2c(c1)CCC(C(=O)O)C2 (centres unmarked) [Compound B-4],110

row,SMILES,EC50 [nM]
1,CCCCCc1cccc(-c2csc(NC(=O)c3ccc4c(c3)CCC(C(=O)O)C4)n2)c1F (centres unmarked) [Compound B-5],56
2,CCCCCc1cc(-c2csc(NC(=O)c3ccc4c(c3)CCC(C(=O)O)C4)n2)ccc1F (centres unmarked) [Compound B-6],66
3,O=C(Nc1nc(-c2ccc(F)c(F)c2)cs1)c1ccc2c(c1)CCC(C(=O)O)C2 (centres unmarked) [Compound B-7],280
4,O=C(Nc1nc(-c2cccc(C(F)(F)F)c2)cs1)c1ccc2c(c1)CCC(C(=O)O)C2 (centres unmarked) [Compound B-8],120
5,O=C(Nc1nc(-c2cccc(F)c2F)cs1)c1ccc2c(c1)CCC(C(=O)O)C2 (centres unmarked) [Compound B-9],28.1
6,O=C(Nc1nc(-c2ccc(Cl)c(Cl)c2)c(F)s1)c1ccc2c(c1)CCC(C(=O)O)C2 (centres unmarked) [Compound B-10],48
7,CC(C)c1cccc(-c2csc(NC(=O)c3ccc4c(c3)CCC(C(=O)O)C4)n2)c1F (centres unmarked) [Compound B-11],66
8,O=C(Nc1nc(-c2cccc(C3CCCCC3)c2F)cs1)c1ccc2c(c1)CCC(C(=O)O)C2 (centres unmarked) [Compound B-12],74
9,O=C(Nc1nc(-c2cccc(C3CCOCC3)c2F)cs1)c1ccc2c(c1)CCC(C(=O)O)C2 (centres unmarked) [Compound B-13],342
10,O=C(Nc1nc(-c2cccc(OC(F)(F)F)c2F)cs1)c1ccc2c(c1)CCC(C(=O)O)C2 (centres unmarked) [Compound B-14],42
11,O=C(Nc1nc(-c2cccc(CCc3ccccc3)c2F)cs1)c1ccc2c(c1)CCC(C(=O)O)C2 (centres unmarked) [Compound B-15],59
12,CCCCOc1cccc(-c2csc(NC(=O)c3ccc4c(c3)CCC(C(=O)O)C4)n2)c1F (centres unmarked) [Compound B-16],98
13,Cc1sc(NC(=O)c2ccc3c(c2)CCC(C(=O)O)C3)nc1-c1cccc(C(F)(F)F)c1 (centres unmarked) [Compound B-17],146
14,O=C(Nc1nc(-c2cccc(C3CCCC3)c2F)cs1)c1ccc2c(c1)CCC(C(=O)O)C2 (centres unmarked) [Compound B-18],72
15,CC(C)Cc1cccc(-c2csc(NC(=O)c3ccc4c(c3)CCC(C(=O)O)C4)n2)c1F (centres unmarked) [Compound B-19],48
16,CCCc1cccc(-c2csc(NC(=O)c3ccc4c(c3)CCC(C(=O)O)C4)n2)c1F (centres unmarked) [Compound B-20],68
17,CCCCc1cccc(-c2csc(NC(=O)c3ccc4c(c3)CCC(C(=O)O)C4)n2)c1F (centres unmarked) [Compound B-21],60
18,COC(c1cccc(-c2csc(NC(=O)c3ccc4c(c3)CCC(C(=O)O)C4)n2)c1F)C(C)C (centres unmarked) [Compound B-22],64
19,COC(c1cccc(-c2csc(NC(=O)c3ccc4c(c3)CCC(C(=O)O)C4)n2)c1F)C1CCCCC1 (centres unmarked) [Compound B-23],45
20,O=C(Nc1nc(-c2cccc(C(F)(F)F)c2)c(F)s1)c1ccc2c(c1)CCC(C(=O)O)C2 (centres unmarked) [Compound B-24],53
21,CCOC(c1cccc(-c2csc(NC(=O)c3ccc4c(c3)CCC(C(=O)O)C4)n2)c1F)C(C)C (centres unmarked) [Compound B-25],38

row,SMILES,EC50 [nM]
1,CCCCCCCc1cccc(-c2csc(NC(=O)c3ccc4c(c3)CCC(C(=O)O)C4)n2)c1F (centres unmarked) [Compound B-26],25
2,CCCCCCCCc1cccc(-c2csc(NC(=O)c3ccc4c(c3)CCC(C(=O)O)C4)n2)c1F (centres unmarked) [Compound B-27],24
3,CCCCCCCCCCc1cccc(-c2csc(NC(=O)c3ccc4c(c3)CCC(C(=O)O)C4)n2)c1F (centres unmarked) [Compound B-28],23
4,CCCc1c(Br)ccc(-c2csc(NC(=O)c3ccc4c(c3)CCC(C(=O)O)C4)n2)c1F (centres unmarked) [Compound B-29],49
5,CCOCCc1cccc(-c2csc(NC(=O)c3ccc4c(c3)CCC(C(=O)O)C4)n2)c1F (centres unmarked) [Compound B-30],142
6,O=C(Nc1nc(-c2cccc(Cc3ccccc3)c2F)cs1)c1ccc2c(c1)CCC(C(=O)O)C2 (centres unmarked) [Compound B-31],104
7,CCOC(C)(C)c1cccc(-c2csc(NC(=O)c3ccc4c(c3)CCC(C(=O)O)C4)n2)c1F (centres unmarked) [Compound B-32],96
8,O=C(Nc1nc(-c2ccc(Cl)c(Cl)c2)cs1)c1ccc2cc(C(=O)O)sc2c1 [Compound C-2],71
9,O=C(Nc1nc(-c2ccc(Cl)c(Cl)c2)cs1)c1ccc2oc(C(=O)O)cc2c1 [Compound C-3],995
10,O=C(Nc1nc(-c2ccc(Cl)c(Cl)c2)cs1)c1ccc2cc(C(=O)O)oc2c1 [Compound C-4],567
11,Cc1c(C(=O)O)oc2ccc(C(=O)Nc3nc(-c4ccc(Cl)c(Cl)c4)cs3)cc12 [Compound C-5],880
12,O=C(Nc1nc(-c2cccc(C(F)(F)F)c2F)cs1)c1ccc2sc(C(=O)O)cc2c1 [Compound D-1],21
13,O=C(O)c1ccc2cc(C(=O)Nc3nc(-c4cccc(C(F)(F)F)c4F)cs3)ccc2c1 [Compound D-2],19
14,O=C(Nc1nc(-c2cccc(C(F)(F)F)c2F)cs1)c1ccc2c(c1)CC(C(=O)O)C2 [Compound D-3],370
15,CCOC(=O)C1=Cc2ccc(C(=O)Nc3nc(-c4cccc(C(F)(F)F)c4F)cs3)cc2C1 [Compound D-4],250
16,O=C(O)C1=Cc2ccc(C(=O)Nc3nc(-c4cccc(C(F)(F)F)c4F)cs3)cc2C1 [Compound D-5],210
17,CCOC(=O)C1Cc2cc(C(=O)Nc3nc(-c4cccc(C(F)(F)F)c4F)cs3)ccc2C1=O [Compound D-6],2540
18,O=C(O)C1=Cc2ccc(C(=O)Nc3nc(-c4cccc(C(F)(F)F)c4F)cs3)cc2CC1 [Compound D-7],45
19,COC(=O)c1cc2ccc(C(=O)Nc3nc(-c4cccc(C(F)(F)F)c4F)cs3)cc2oc1=O [Compound D-8],1930
20,O=C(O)c1ccc2sc(C(=O)Nc3nc(-c4ccc(Cl)c(Cl)c4)cs3)cc2c1 [Compound E-1],16500
